In ChEMBL document CHEMBL1201862, “PubChem BioAssay data set” (2004):
The source made the active and inactive calls.

What was measured:
[1] = target: Cytochrome P450 3A4 (Homo sapiens, UniProt P08684); conditions: Potency;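 further: confirmatory qHTS run detecting inhibitors and substrates of CYP3A4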
[2] = target: T1, Caspase-6 (Homo sapiens, UniProt P55212); test: human caspase-6 inhibitors, dose response, biochemical, VEID-R110 fluorescence, cherry-pick (AID 720632)
T1 sequence (P55212 whole entry): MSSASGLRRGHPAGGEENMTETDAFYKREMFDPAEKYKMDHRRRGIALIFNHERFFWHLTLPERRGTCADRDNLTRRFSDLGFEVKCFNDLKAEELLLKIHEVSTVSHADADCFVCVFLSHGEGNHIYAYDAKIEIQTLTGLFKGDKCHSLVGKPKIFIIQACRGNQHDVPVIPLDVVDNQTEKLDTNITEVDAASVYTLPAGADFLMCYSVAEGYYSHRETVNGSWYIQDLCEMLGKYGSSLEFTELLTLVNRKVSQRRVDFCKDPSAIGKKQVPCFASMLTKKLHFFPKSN

[3] = target: T2, Short transient receptor potential channel 4 (Mus musculus, UniProt Q9QUQ5); test: mouse TRPC4 channel activators, dose response, cell-based, HEK293 TRPC4/mu-opioid, Fluo-4 calcium (AID 434937); format: functional
T2 sequence (Q9QUQ5 whole entry): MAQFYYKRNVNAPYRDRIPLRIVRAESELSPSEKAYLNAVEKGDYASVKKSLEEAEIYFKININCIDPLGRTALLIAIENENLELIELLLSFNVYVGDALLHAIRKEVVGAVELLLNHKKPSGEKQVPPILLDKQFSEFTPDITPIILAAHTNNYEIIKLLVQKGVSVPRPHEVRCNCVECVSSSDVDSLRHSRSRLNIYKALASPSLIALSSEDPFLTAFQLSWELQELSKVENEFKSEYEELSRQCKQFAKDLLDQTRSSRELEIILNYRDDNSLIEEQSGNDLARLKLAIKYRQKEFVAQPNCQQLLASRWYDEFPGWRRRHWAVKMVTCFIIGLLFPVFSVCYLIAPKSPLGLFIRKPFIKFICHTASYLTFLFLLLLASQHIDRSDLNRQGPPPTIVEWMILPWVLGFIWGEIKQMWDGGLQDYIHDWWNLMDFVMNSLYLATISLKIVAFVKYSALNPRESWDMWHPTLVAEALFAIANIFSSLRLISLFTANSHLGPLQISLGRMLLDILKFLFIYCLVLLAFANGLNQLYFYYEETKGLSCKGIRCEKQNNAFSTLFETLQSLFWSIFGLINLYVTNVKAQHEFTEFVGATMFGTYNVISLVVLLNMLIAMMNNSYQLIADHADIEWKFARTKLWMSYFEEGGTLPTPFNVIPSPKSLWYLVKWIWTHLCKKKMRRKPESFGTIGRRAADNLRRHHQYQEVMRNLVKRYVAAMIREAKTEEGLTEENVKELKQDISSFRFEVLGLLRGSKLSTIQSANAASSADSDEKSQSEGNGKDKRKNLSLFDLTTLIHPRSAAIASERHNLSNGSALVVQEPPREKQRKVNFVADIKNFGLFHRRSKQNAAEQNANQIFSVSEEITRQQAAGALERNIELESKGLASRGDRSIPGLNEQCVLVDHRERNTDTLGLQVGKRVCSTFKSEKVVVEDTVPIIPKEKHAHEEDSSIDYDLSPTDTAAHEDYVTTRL

[4] = target: Genome polyprotein (dengue virus type 2, UniProt P29990); test: Dengue-2 NS5 methyltransferase inhibitors, primary screen, biochemical, confirmation dose response (AID 588689); format: functional
Genome polyprotein, sequence (P29990 2492-3391 limits assumed): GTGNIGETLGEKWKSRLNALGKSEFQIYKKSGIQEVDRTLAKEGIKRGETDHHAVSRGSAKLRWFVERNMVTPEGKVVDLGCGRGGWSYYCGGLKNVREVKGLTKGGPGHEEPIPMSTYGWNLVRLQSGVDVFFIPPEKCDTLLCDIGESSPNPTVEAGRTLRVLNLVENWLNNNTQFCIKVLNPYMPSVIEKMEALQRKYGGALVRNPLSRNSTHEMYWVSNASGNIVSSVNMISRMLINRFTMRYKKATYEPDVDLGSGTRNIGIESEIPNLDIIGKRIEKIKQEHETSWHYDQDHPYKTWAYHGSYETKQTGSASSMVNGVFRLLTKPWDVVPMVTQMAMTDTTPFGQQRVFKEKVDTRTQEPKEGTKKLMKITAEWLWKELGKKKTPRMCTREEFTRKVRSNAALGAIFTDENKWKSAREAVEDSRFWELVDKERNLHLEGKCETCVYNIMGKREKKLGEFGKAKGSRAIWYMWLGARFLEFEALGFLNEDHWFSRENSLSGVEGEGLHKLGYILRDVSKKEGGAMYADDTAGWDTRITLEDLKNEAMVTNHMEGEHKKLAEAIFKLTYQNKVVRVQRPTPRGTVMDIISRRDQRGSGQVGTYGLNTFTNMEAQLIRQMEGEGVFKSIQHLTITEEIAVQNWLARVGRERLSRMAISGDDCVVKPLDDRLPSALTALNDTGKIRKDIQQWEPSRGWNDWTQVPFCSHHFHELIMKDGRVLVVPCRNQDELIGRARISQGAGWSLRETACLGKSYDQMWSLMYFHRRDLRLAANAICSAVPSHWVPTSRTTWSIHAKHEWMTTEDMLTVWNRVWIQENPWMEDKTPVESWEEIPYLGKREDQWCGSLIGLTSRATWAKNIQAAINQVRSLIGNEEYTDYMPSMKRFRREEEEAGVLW

[5] = target: T3, Polyadenylate-binding protein 1 (Homo sapiens, UniProt P11940); test: PABP1 MLLE–PAM2 interaction inhibitors, dose response, miRNA deadenylation inhibitor project, biochemical, fluorescence polarization, Cy5-PAM2 peptide, secondary (AID 602260); format: functional; conditions: read-out: IC50_Mean
T3 sequence (P11940 whole entry): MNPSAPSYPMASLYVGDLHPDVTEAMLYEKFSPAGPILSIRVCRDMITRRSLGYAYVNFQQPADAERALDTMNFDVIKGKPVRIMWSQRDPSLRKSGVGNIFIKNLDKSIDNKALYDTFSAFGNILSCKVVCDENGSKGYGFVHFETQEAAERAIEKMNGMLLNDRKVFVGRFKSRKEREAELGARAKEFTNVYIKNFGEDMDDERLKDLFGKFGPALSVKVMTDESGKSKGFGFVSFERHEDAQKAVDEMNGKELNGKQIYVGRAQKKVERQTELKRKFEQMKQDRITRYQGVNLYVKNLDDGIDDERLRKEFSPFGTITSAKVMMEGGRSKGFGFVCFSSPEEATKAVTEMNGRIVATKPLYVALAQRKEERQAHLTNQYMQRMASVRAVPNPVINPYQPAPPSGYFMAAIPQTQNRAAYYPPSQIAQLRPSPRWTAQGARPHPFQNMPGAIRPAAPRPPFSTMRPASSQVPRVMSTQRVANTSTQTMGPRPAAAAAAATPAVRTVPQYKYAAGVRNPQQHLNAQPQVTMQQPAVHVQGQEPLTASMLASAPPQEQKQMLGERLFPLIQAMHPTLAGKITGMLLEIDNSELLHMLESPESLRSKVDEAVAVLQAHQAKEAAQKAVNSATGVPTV

[6] = target: T3, Polyadenylate-binding protein 1; test: PABP1 MLLE–PAM2 binding inhibitor potency, dose response, biochemical, fluorescence polarization, FITC-PAM2 peptide (AID 602259); format: functional; conditions: read-out: IC50_Mean
[7] = target: T4, RNA-binding protein pos-1 (Caenorhabditis elegans, UniProt G5EF15); test: inhibitors of POS-1/mex-3 RNA binding, dose response, biochemical, fluorescence polarization (AID 1964);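 further: purified POS-1 fused to maltose binding protein made in E. coli; potency of compounds blocking POS-1 binding to fluorescent RNA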
T4 sequence (G5EF15 whole entry): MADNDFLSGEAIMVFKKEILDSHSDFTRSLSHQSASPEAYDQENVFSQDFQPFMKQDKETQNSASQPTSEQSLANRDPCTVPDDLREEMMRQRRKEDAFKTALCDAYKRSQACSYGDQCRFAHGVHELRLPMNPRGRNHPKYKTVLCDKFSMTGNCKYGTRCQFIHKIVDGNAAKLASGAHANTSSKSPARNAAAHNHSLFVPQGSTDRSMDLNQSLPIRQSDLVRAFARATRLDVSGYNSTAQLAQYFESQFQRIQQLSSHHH

[8] = target: T5, Zinc finger protein mex-5 (Caenorhabditis elegans, UniProt Q9XUB2); test: MEX-5/TCR-2 RNA interaction inhibitors, dose response, biochemical, C. elegans, fluorescence polarization (AID 1960)
T5 sequence (Q9XUB2 whole entry): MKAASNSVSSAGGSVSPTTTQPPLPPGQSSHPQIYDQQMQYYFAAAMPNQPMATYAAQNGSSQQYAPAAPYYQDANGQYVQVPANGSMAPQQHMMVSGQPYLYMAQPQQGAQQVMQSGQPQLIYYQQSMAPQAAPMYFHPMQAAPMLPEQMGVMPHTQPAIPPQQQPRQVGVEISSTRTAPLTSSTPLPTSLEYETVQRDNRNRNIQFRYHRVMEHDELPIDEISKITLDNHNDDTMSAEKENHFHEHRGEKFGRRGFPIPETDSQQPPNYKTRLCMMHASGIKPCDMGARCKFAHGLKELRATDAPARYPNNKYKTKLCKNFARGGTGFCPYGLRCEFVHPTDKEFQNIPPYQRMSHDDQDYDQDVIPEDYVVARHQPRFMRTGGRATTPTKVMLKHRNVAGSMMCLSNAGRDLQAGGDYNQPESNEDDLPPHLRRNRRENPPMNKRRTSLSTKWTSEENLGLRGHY

[9] = Luminescence Cell-Based Dose Confirmation HTS to Identify Activators of 5'UTR Stem-Loop Driven Alpha-Synuclein mRNA Translation in H4 Neuroglioblastoma Cells. [Related pubchem assays: 1829 (Project Summary), 1814 (Primary HTS)]; format: functional
[10] = Luminescence Cell-Based Dose Response HTS to Identify Activators of Luciferase Translation or Activity in H4 […] Cells. [Related pubchem assays: 1829 (Project Summary), 1814 (Primary HTS)]; format: functional
[11] = tested on: H4; test: Luminescence Cell-Based Dose Response HTS to Identify Activators of 5'UTR Stem-Loop Driven Prion Protein mRNA Translation in H4 Neuroglioblastoma Cells. [Related pubchem assays: 1829 (Project Summary), 1814 (Primary HTS)]; format: functional; conditions: Homo sapiens
[12] = target: T6, Protein skinhead-1 (Caenorhabditis elegans, UniProt P34707); format: functional
T6 sequence (P34707 whole entry): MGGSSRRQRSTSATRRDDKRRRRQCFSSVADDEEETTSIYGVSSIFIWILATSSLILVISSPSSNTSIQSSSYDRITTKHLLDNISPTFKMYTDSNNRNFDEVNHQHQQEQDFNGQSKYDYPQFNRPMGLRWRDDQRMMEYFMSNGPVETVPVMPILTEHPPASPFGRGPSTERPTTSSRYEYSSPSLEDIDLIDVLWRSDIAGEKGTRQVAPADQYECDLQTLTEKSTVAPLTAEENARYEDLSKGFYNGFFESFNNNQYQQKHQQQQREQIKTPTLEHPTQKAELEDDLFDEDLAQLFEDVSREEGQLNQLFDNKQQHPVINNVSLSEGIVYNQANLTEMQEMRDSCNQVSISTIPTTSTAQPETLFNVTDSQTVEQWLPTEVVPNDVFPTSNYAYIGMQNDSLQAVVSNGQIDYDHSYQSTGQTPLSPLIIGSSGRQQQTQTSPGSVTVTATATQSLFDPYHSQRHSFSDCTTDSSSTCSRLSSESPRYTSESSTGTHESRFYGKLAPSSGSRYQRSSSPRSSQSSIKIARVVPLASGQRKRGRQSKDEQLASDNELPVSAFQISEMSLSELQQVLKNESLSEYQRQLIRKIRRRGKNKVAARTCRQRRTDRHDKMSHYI

[13] = target: T7, Cytochrome P450 1A2 (Homo sapiens, UniProt P05177);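 further: PubChem cytochrome P450 panel assay, CYP1A2 panel member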
T7 sequence (P05177 whole entry): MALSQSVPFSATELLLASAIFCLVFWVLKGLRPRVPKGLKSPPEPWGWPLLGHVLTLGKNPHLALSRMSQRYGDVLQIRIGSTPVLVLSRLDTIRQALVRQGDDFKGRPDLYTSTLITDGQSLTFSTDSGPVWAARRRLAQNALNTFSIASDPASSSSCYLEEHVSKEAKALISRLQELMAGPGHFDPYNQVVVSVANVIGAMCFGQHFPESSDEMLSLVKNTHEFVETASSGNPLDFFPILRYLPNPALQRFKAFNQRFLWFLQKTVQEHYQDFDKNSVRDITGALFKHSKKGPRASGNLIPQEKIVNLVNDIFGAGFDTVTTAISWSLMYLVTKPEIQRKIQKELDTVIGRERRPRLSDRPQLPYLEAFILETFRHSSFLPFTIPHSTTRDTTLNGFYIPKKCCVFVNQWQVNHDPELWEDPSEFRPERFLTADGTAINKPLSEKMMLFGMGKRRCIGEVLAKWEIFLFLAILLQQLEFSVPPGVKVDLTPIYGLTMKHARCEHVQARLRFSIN

[14] = target: Cytochrome P450 2C9 (Homo sapiens, UniProt P11712)
Cytochrome P450 2C9, sequence (P11712 whole entry): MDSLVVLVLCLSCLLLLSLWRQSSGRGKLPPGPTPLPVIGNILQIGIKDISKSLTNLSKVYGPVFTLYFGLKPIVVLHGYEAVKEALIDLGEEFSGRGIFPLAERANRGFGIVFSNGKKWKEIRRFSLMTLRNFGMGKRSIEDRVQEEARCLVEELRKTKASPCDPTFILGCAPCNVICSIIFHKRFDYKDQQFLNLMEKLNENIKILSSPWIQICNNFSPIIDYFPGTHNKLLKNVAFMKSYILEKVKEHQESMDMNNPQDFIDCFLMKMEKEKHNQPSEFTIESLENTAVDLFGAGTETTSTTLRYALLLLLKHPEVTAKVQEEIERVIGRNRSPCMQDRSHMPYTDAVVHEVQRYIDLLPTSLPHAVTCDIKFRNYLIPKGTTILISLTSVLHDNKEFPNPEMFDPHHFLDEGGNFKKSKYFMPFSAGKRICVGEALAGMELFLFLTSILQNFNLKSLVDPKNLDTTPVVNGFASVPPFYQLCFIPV

Cytochrome P450 3A4, sequence (P08684 whole entry): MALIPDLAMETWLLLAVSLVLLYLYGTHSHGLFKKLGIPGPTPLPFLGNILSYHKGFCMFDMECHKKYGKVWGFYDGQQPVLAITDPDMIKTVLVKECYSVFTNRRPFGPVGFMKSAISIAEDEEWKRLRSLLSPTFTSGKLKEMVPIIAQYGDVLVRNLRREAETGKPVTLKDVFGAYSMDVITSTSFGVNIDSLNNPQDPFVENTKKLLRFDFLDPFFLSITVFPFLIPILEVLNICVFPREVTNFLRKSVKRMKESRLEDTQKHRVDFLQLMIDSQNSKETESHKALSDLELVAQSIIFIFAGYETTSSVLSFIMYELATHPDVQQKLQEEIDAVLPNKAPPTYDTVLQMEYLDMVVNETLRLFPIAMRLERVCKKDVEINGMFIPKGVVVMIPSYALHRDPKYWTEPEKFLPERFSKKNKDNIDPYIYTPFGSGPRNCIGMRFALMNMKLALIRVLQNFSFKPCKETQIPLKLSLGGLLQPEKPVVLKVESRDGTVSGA

SMILES: Cc1nc(NC2CCCCC2)c2nc(-c3ccccc3)n(CCCN(C)C)c2n1
- AC50 [1]: 20 µM (inconclusive)

SMILES: O=C(O)C/C(=C\c1cc(Cl)c2c(c1)OCO2)c1nc2ccccc2s1
- AC50 [2]: 7.56 µM (active)

SMILES: COc1cccc(C(=O)OC2CCCN(C)C2)c1 (configuration not stated)
- EC50 [3]: 0.376 µM (active)

SMILES: CN(C)C(CNC(=O)/C=C/c1cccc(Cl)c1)c1ccccc1 (configuration not stated)
- EC50 [3]: 0.133 µM (active)

SMILES: CC1=NN(c2ccc(Br)cc2)C(=O)/C1=C/c1ccc(-c2ccccc2C(=O)O)o1
- IC50 [4]: 30 µM (active)

SMILES: Cc1csc2c(N3CCN(C(=O)Nc4ccccc4)CC3)ncnc12
- EC50 [3]: 1.68 µM (active)

SMILES: Cc1cc[n+](-c2[n-]c(=O)sc2C=NNC(=O)c2ccncc2)cc1
- IC50 [4]: 83.8 µM (active)
- IC50 [5]: > 66 µM (inactive)
- IC50 [6]: 36 µM (inactive)

SMILES: O=Nc1ccc(Nc2ccccc2)cc1
- AC50 [1]: 20 µM (inconclusive)

SMILES: O=C(O)CCC(=O)NCc1ccc2[nH]c3c(c2c1)CCCC3
- EC50 [7]: 82.1 µM (active)
- EC50 [8]: 112 µM (active)
- AC50 [2]: 25.6 µM (active)

SMILES: COCCn1nnnc1C(c1cc2ccc(OC)cc2nc1O)N1CCN(C2CCCCC2)CC1 (configuration not stated)
- EC50 [3]: 3.76 µM (active)

SMILES: CC(=O)N(C)c1ccc(NC(=O)Cc2cccs2)cc1
- AC50 [2]: 31.8 µM (active)

SMILES: Cc1c(N=C=O)cccc1N=C=O
- AC50 [1]: 15.8 µM (inconclusive)

SMILES: CN(C)c1ccc2c(c1)[C@@H]1C[C@@H](CC(=O)N3CCOCC3)O[C@@H](CO)[C@@H]1O2
- AC50 [2]: 42.4 µM (active)

SMILES: Cc1ccc(NC(=S)NC2CC3CCC(C2)N3Cc2ccco2)c(C)c1 (configuration not stated)
- EC50 [3]: 5.96 µM (active)

SMILES: COC(=O)CNC(=O)[C@@]1(C)C=C[C@@H](Cc2ccccc2)N1C(C)=O
- AC50 [1]: 20 µM (inconclusive)

SMILES: COc1cc(/C=C2/C(=N)N3C(c4ccccc4)=CSC3=NC2=O)ccc1OCC(=O)O
- EC50 [9]: 19.6 µM (active)
- EC50 [10]: 12.7 µM (active)
- EC50 [11]: > 120 µM (not active)
- IC50 [4]: > 100 µM (active)

SMILES: COC(=O)CC1[C@@]2(C)C[C@]34OC5(C)OC6(C7CC(=O)OC(c8ccoc8)[C@]7(C)CCC6(O5)[C@]13C)C(OC(C)=O)[C@]4(OC(C)=O)C2OC(C)=O (some centres not stated)
- AC50 [1]: 20 µM (inconclusive)

SMILES: CCCCN(CC)CCCNC(=O)c1csc2c1CCCCC2
- EC50 [3]: 1.19 µM (active)

SMILES: CSc1nc(O)c(C(c2ccc(OC(C)C)cc2)c2c(O)nc(SC)nc2O)c(O)n1
- IC50 [4]: 32.9 µM (active)

SMILES: c1ccc(-c2ccc(CN3C[C@@H]4C(c5ccccc5)C5(c6cccnc6)CC4(C5)[C@H]3c3ccccc3)cc2)cc1 (some centres not stated)
- AC50 [1]: 15.8 µM (inconclusive)

SMILES: CSc1ccccc1NC(=O)CN(C)C(=O)COc1cccc2cccnc12
- AC50 [2]: 29.5 µM (active)

SMILES: COc1cc2c(Cc3c4c5c(cc(OC)c(OC)c5c5c(OC)c(OC)ccc35)CCN4C)c3c4c(cc(OC)c(OC)c4c2cc1OC)CCN3C
- AC50 [1]: 3.16 µM (inconclusive)

SMILES: O=C1C=C2C=CC3C[C@@]2(O1)C1CCCCN31 (some centres not stated)
- AC50 [1]: 31.6 µM (inconclusive)

SMILES: COc1ccc(/C=C(\C#N)C(=O)NCC2CCCO2)cc1OC (configuration not stated)
- EC50 [7]: > 300 µM (not active)
- EC50 [8]: > 300 µM (not active)
- IC50 [12]: > 100 µM (inactive)
- AC50 [13]: 22.4 µM (inconclusive)
- AC50 [14]: inconclusive

SMILES: CCOc1cc(OCC)c(C(C)=O)cc1OCC
- AC50 [1]: 15.8 µM (inconclusive)

SMILES: COc1ccc(-c2ccccc2C2NC(C(=O)O)CCC2C)cc1 (configuration not stated)
- AC50 [1]: 5.01 µM (inconclusive)
